What was measured:
[1] = Quantitative sweetness synergy of monatin in blends with other sweeteners; format: in vivo
[2] = Stability of monatin at pH 3 with increasing temperatures; format: physicochemical
Method: A sample of synthetic monatin was subjected to pH 3 at temperatures of 25° C., 50° C. and 100° C. At room temperature and pH 3, a 14% loss in monatin was observed over a period of 48 hours. This loss was attributed to lactone formation. At 50° C. and pH 3, a 23% loss in monatin was observed over a period of 48 hours. This loss was attributed to lactone formation and the buildup of an unknown compound after about 15.5 minutes. […] The major detectable component was an unknown at 15.5 minutes.

[3] = Sensory stability of monatin and aspartame at pH 2.5, 3.0, 4.0 at 40° C. (sweetness vs sucrose standards, panel n=8); format: physicochemical; conditions: for Rate constant (k; day^−1) of sweetness loss: pseudo-first order assumed
Method: The sensory stability of monatin solutions prepared at pH 2.5, 3.0 and 4.0 and stored at 40° C. was monitored for 100 days. Loss of sweetness from these solutions was compared with the losses of sweetness from aspartame solutions prepared and stored under identical conditions.
The sensory stability of monatin (8% SEV, ˜55 ppm, synthetic blend containing approximately 96% of the 2R,4R/2S, 4S enantiometric pair and 4% of the 2R,4S/2S,4R enantiometric pair) in phosphate/citrate buffers having a pH of 2.5, 3.0, and 4.0 was examined after storage at 40° C. The stability of monatin was compared to that of aspartame (400 ppm) in the same buffers. Three sucrose reference solutions were prepared in the same phosphate/citrate buffers as the monatin and aspartame solutions. All prepared solutions were stored in the dark.
• pH2.5 Phosphoric acid (75% solution) 0.127% (w/v) • Tri-sodium citrate monohydrate 0.005% (w/v) • pH3.0 Phosphoric acid (75% solution) 0.092% (w/v) • Tri-sodium citrate monohydrate 0.031% (w/v) • pH4.0 Phosphoric acid (75% solution) 0.071% (w/v) • Tri-sodium citrate monohydrate 0.047% (w/v)
The sweetness of each sweetener relative to sucrose was assessed in duplicate by a small panel (n=8) of trained sensory evaluators experienced in the sweetness estimation procedure. All samples (in the same buffers) were served in duplicate at a temperature of 22° C.±1° C. Monatin (test) solutions, coded with 3 digit random number codes were presented individually to panelists, in random order. Sucrose reference standards, ranging from 4.0-10.0% (w/v) sucrose, increasing in steps of 0.5% (w/v) sucrose were also provided. Panelists were asked to estimate sweetness by comparing the sweetness of the test solution to the sucrose standards. This was carried out by taking 3 sips of the test solution, followed by a sip of water, followed by 3 sips of sucrose standard followed by a sip of water, etc. Panelists were encouraged to estimate the sweetness to one decimal place, e.g., 6.8, 8.5. A five minute rest period was imposed between evaluating the test solutions. Panelists were also asked to rinse well and eat a cracker to reduce any potential carry over effects.
If a pseudo-first order breakdown reaction is assumed, a plot of logn percentage retention versus time (logn% RTN v. t) allows estimation of the half-life (t½) and rate constant (k) of sweetness loss under any given set of conditions. In so doing, the kinetics of monatin and aspartame sweetness loss may be summarized as follows in Table 13.

[4] = Stability of monatin at high temperature (80° C.) and neutral pH, LC-MS; format: physicochemical; conditions: pH 7, 75 ppm, after 7-35 days
Method: A 100 milliliter solution of 75 ppm monatin at pH 7 was used as a stock solution. The synthetic monatin sample contained approximately 96% of the 2R,4R/2S,4S enantiomeric pair and 4% of the 2R,4S/2S,4R enantiomeric pair. Samples were incubated at 80° C. and pH 7 for the duration of the experiment and samples were withdrawn at 0, 1, 2, 3, 4 hours and 1, 2, 4, 7, 14, 21 and 35 days. All experimental conditions were run in duplicate.
Separation and Quantification Using LC-MS using Reverse Phase Chromatography A response curve was established for both detected diastereomer peaks of the synthetic monatin. A range of 5-150 ppm was bracketed with the synthetic monatin standard dissolved in DI water. Separation of the two diastereomer peaks was accomplished using a 3.9×1 50 mm Novapak C18 (Waters Corporation) HPLC column. Ultraviolet-Visible (UV) and Mass Spectrometer (MS) detectors were used in series for detection and quantitation. Monatin and its lactone peak each have a UVmax at 279 nm that aided in precise detection. Quantification was done by acquiring Selected Ion Monitoring (SIM) scan of 293.3 m/z and 275.3 m/z in positive-ion electrospray mode.

[5] = pH 2.5, 40° C., day 1, monatin ~55 ppm
[6] = pH 2.5, 40° C., day 2, monatin ~55 ppm
[7] = pH 2.5, 40° C., day 3, monatin ~55 ppm
[8] = pH 2.5, 40° C., day 4, monatin ~55 ppm
[9] = pH 2.5, 40° C., day 7, monatin ~55 ppm
[10] = pH 2.5, 40° C., day 8, monatin ~55 ppm
[11] = pH 2.5, 40° C., day 9, monatin ~55 ppm
[12] = pH 2.5, 40° C., day 11, monatin ~55 ppm
[13] = pH 2.5, 40° C., day 50, monatin ~55 ppm
[14] = pH 2.5, 40° C., day 100, monatin ~55 ppm
[15] = pH 3.0, 40° C., day 1, monatin ~55 ppm
[16] = pH 3.0, 40° C., day 2, monatin ~55 ppm
[17] = pH 3.0, 40° C., day 3, monatin ~55 ppm
[18] = pH 3.0, 40° C., day 4, monatin ~55 ppm
[19] = pH 3.0, 40° C., day 7, monatin ~55 ppm
[20] = pH 3.0, 40° C., day 8, monatin ~55 ppm
[21] = pH 3.0, 40° C., day 9, monatin ~55 ppm
[22] = pH 3.0, 40° C., day 11, monatin ~55 ppm
[23] = pH 3.0, 40° C., day 50, monatin ~55 ppm
[24] = pH 3.0, 40° C., day 100, monatin ~55 ppm
[25] = pH 4.0, 40° C., day 3, monatin ~55 ppm
[26] = pH 4.0, 40° C., day 8, monatin ~55 ppm
[27] = pH 4.0, 40° C., day 11, monatin ~55 ppm
[28] = pH 4.0, 40° C., day 17, monatin ~55 ppm
[29] = pH 4.0, 40° C., day 24, monatin ~55 ppm
[30] = pH 4.0, 40° C., day 50, monatin ~55 ppm
[31] = pH 4.0, 40° C., day 100, monatin ~55 ppm

For `NC(CC(O)(Cc1c[nH]c2ccccc12)C(=O)O)C(=O)O` (stereo not drawn) [Monatin, 2-hydroxy-2-(indol-3-ylmethyl)-4-aminoglutaric acid], the “quantitative synergy with cyclamates” value ([1]; blend with cyclamates) was “quantitatively synergistic”, the “quantitative synergy with other sweeteners” value ([1]; with aspartame, saccharin, acesulfame-K, sucralose, or carbohydrate sweeteners) was “no significant quantitative synergy” and the loss in monatin ([2]; 50° C., pH 3, 48 hours) was 23%. The loss in monatin ([2]; 100° C., pH 3, 24 hours) was “nearly all monatin was lost”, the loss in monatin ([2]; room temperature (25° C.), pH 3, 48 hours) was 14% and the “SEV Monatin (% sucrose)” value ([3]; pH 2.5, 40° C., day 0, monatin ~55 ppm) was 7.35 % sucrose. For the same compound, the “Retention of Monatin Sweetness (%)” value [3, 5] was 93.3%, the “SEV Monatin (% sucrose)” value [3, 5] was 6.86 % sucrose and the “Retention of Monatin Sweetness (%)” value [3, 6] was 91.2%. For the same compound, the “SEV Monatin (% sucrose)” value [3, 6] was 6.70 % sucrose, the “Retention of Monatin Sweetness (%)” value [3, 7] was 88.4% and the “SEV Monatin (% sucrose)” value [3, 7] was 6.50 % sucrose. The “Retention of Monatin Sweetness (%)” value [3, 8] was 85.2%, the “SEV Monatin (% sucrose)” value [3, 8] was 6.26 % sucrose and the “Retention of Monatin Sweetness (%)” value [3, 9] was 82.7%. For the same compound, the “SEV Monatin (% sucrose)” value [3, 9] was 6.08 % sucrose, the “Retention of Monatin Sweetness (%)” value [3, 10] was 81.4% and the “SEV Monatin (% sucrose)” value [3, 10] was 5.98 % sucrose. The “Retention of Monatin Sweetness (%)” value [3, 11] was 80.1%, the “SEV Monatin (% sucrose)” value [3, 11] was 5.89 % sucrose and the “Retention of Monatin Sweetness (%)” value [3, 12] was 78.6%. The “SEV Monatin (% sucrose)” value [3, 12] was 5.78 % sucrose, the “Retention of Monatin Sweetness (%)” value [3, 13] was 62.7% and the “SEV Monatin (% sucrose)” value [3, 13] was 4.61 % sucrose. For the same compound, the “Retention of Monatin Sweetness (%)” value [3, 14] was 28.6%, the “SEV Monatin (% sucrose)” value [3, 14] was 2.10 % sucrose and the “Rate constant (k; day^−1) of sweetness loss” value ([3]; pH 2.5, 40° C.) was 0.011 day⁻¹. For the same compound, the “Sweetness Retained (%)” value ([3]; pH 2.5, 100 days storage at 40° C.) was 29%, the “SEV Monatin (% sucrose)” value ([3]; pH 3.0, 40° C., day 0, monatin ~55 ppm) was 7.08 % sucrose and the “Retention of Monatin Sweetness (%)” value [3, 15] was 99.6%. For the same compound, the “SEV Monatin (% sucrose)” value [3, 15] was 7.05 % sucrose, the “Retention of Monatin Sweetness (%)” value [3, 16] was 93.2% and the “SEV Monatin (% sucrose)” value [3, 16] was 6.60 % sucrose. For the same compound, the “Retention of Monatin Sweetness (%)” value [3, 17] was 91.4%, the “SEV Monatin (% sucrose)” value [3, 17] was 6.47 % sucrose and the “Retention of Monatin Sweetness (%)” value [3, 18] was 91.6%. For the same compound, the “SEV Monatin (% sucrose)” value [3, 18] was 6.49 % sucrose, the “Retention of Monatin Sweetness (%)” value [3, 19] was 85.3% and the “SEV Monatin (% sucrose)” value [3, 19] was 6.04 % sucrose. The “Retention of Monatin Sweetness (%)” value [3, 20] was 83.8%, the “SEV Monatin (% sucrose)” value [3, 20] was 5.93 % sucrose and the “Retention of Monatin Sweetness (%)” value [3, 21] was 83.1%. For the same compound, the “SEV Monatin (% sucrose)” value [3, 21] was 5.88 % sucrose, the “Retention of Monatin Sweetness (%)” value [3, 22] was 83.1% and the “SEV Monatin (% sucrose)” value [3, 22] was 5.88 % sucrose. For the same compound, the “Retention of Monatin Sweetness (%)” value [3, 23] was 72.3%, the “SEV Monatin (% sucrose)” value [3, 23] was 5.12 % sucrose and the “Retention of Monatin Sweetness (%)” value [3, 24] was 57.9%. The “SEV Monatin (% sucrose)” value [3, 24] was 4.10 % sucrose, the “Rate constant (k; day^−1) of sweetness loss” value ([3]; pH 3.0, 40° C.) was 0.006 day⁻¹ and the “Sweetness Retained (%)” value ([3]; pH 3.0, 100 days storage at 40° C.) was 58%. The “SEV Monatin (% sucrose)” value ([3]; pH 4.0, 40° C., day 0, monatin ~55 ppm) was 7.40 % sucrose, the “Retention of Monatin Sweetness (%)” value [3, 25] was 95.7% and the “SEV Monatin (% sucrose)” value [3, 25] was 7.08 % sucrose. For the same compound, the “Retention of Monatin Sweetness (%)” value [3, 26] was 86.8%, the “SEV Monatin (% sucrose)” value [3, 26] was 6.42 % sucrose and the “Retention of Monatin Sweetness (%)” value [3, 27] was 85.9%. The “SEV Monatin (% sucrose)” value [3, 27] was 6.36 % sucrose, the “Retention of Monatin Sweetness (%)” value [3, 28] was 82.4% and the “SEV Monatin (% sucrose)” value [3, 28] was 6.10 % sucrose. For the same compound, the “Retention of Monatin Sweetness (%)” value [3, 29] was 84.5%, the “SEV Monatin (% sucrose)” value [3, 29] was 6.25 % sucrose and the “Retention of Monatin Sweetness (%)” value [3, 30] was 82.9%. The “SEV Monatin (% sucrose)” value [3, 30] was 6.14 % sucrose, the “Retention of Monatin Sweetness (%)” value [3, 31] was 78.4% and the “SEV Monatin (% sucrose)” value [3, 31] was 5.80 % sucrose. For the same compound, the “Rate constant (k; day^−1) of sweetness loss” value ([3]; pH 4.0, 40° C.) was 0.003 day⁻¹, the “Sweetness Retained (%)” value ([3]; pH 4.0, 100 days storage at 40° C.) was 78% and the “degree of degradation of monatin” value [4] was “insignificant”.
